Laboratory results taken from patent US10874730B2, “Methods for treating brain cancer using il-13r alpha 2 peptide-based compositions” (University of Pittsburgh—Of the Commonwealth System of …, priority 2004, dated 2020).

Columns and labels:
HLA-A2 = biological target: T1, HLA-A2 (Homo sapiens, UniProt P04439, D140Y/D185E/D98H/E176V/E277Q/G131W/G231S/I119V/I121R/I166T/I218V/L300P/L318F/N151K/N90K/P208A/P217A/Q86G/Q94H/R138H/R169H/T345S); assay: HLA-A2 binding: surface expression of HLA-A2 on T2 cells by flow cytometry; conditions: 1 nM
T1 construct: expressed in transfected cells; host or cells: T2 cells
Description: The binding capability of these modified peptides was assessed using an HLA-A2 transfected T2 cell line. Aliquots of T2 cells were incubated with modified peptides or IL-13Rα2345-353 at 1 nM overnight, and then examined for the surface expression levels of HLA-A2 on T2 cells by flow cytometry. Since stable binding of HLA-A2 with peptide epitopes further stabilizes the surface expression of HLA-A2 (Francini et al., 2002; Alves et al., 2003), quantitative expression levels of HLA-A2, which is indicated by Mean Fluorescence Intensity (MFI) in Table 1, correlate with the binding affinity of the peptide-epitopes that are co-incubated with the T2 cells.

[1] = test system: T2 cells loaded with the wild type IL-13Rα2345-353; assay: 4-hr 51Cr-release assay, peptide-induced CTL lines against peptide-loaded T2 cells; format: cell-based, human; conditions: for lysis of T2 target cells pulsed with 100 ng/ml wild type IL-13Rα2345-353 by peptide-stimulated T cells: CD8+ T cells of HLA-A*0201+ glioma patients stimulated with peptide-pulsed DCs, day 10, FIG. 1; for magnitude of CTL reactivity against T2 cells loaded with native IL-13Rα2345-353 compared with native or IL-13Rα2-E1V9: E/T ratio 12.5, P<0.01 vs native at 0.1 and 1 nM, FIG. 1
human glioma cells SNB19 = assay: 4-hr 51Cr-release assay, peptide-induced CTL lines against glioma cells; format: cell-based; conditions: for lysis of SNB19 in comparison to the native IL-13Rα2345-353 peptide: each E/T ratio, FIG. 3; for anti-SNB19 glioma cell lytic activities on addition of cold T2 cells pulsed IL-13Rα2345-353: cold target competition, FIG. 4
Description: CD8+ cells derived from an HLA-A2+ glioma patient were stimulated with native IL-13Rα2345-353 (●), IL-13Rα2-V9 (∘), IL-13Rα2-A1V9 (Δ), or IL-13Rα2-E1V9 (X). On day 10, the cells were tested for lytic ability against human glioma cells SNB19 (A) and U-251 (B) (both are IL-13Rα+/HLA-A2+) using 4-Hr ^51 Cr-release assay.
The CTL lines induced with each peptide (control (A); Flu (B); IL-13Rα2345-353 (C); IL-13Rα2345-9V (D)) were incubated for 4 h with ^51Cr-labeled human glioma cell lines SNB19 at the indicated E:T ratios for evaluation of specific lytic ability (●). For the cold target inhibition assay, ^51Cr-labeled target SNB19 cells (1×10^3 cells/well) and cold T2 cells (1×10^4 cells/well) pulsed with (Δ) or without (∘) peptide IL-13Rα2345-353 were incubated with the CTLs.
The CTL lines induced with each peptide (control (A); Flu (B); IL-13Rα2345-353 (C); IL-13Rα2345-9V (D)) were incubated for 4 h with ^51Cr-labeled human glioma cell line SNB19 at the indicated E:T ratios for evaluation of specific lytic ability (●). Anti-HLA-A2 antibody (W6/32; 10 μg/ml) was added to block the function of HLA-A2 mediated recognition by the T cells (a).
(§1) The ability of modified peptides, such as IL-13Rα2-V9, to enhance the CTL activity against HLA-A2+ human glioma cells that endogenously expressed and presented IL-13Rα2-derived epitopes was examined. Human glioma cell lines U251 and SNB19 express HLA-A2 and IL-13Rα2, whereas human glioma cell line A172 expresses IL-13Rα2 but not HLA-A2 (Okano et al., 2002).
(§2) The lytic ability of the peptide-induced CTL lines against these glioma cells was examined using 4-hr ^51Cr-release assays.
To determine the specificity of the lytic activity, cold target competition experiments were performed by addition of non-radiolabeled (cold) T2 cells pulsed with IL-13Rα2345-353 peptide in the 4-h ^51Cr-release assay (FIG. 4).
Furthermore, anti-HLA-A2 antibody (W6/32) was used to block the HLA-A2 mediated signaling in the CTL reactivity.

human glioma cells U-251 = assay: as above; format: cell-based; conditions: each E/T ratio, FIG. 3
Description: CD8+ cells derived from an HLA-A2+ glioma patient were stimulated with native IL-13Rα2345-353 (●), IL-13Rα2-V9 (∘), IL-13Rα2-A1V9 (Δ), or IL-13Rα2-E1V9 (X). On day 10, the cells were tested for lytic ability against human glioma cells SNB19 (A) and U-251 (B) (both are IL-13Rα+/HLA-A2+) using 4-Hr ^51 Cr-release assay. Against SNB19 glioma cells, p<0.05 at all E/T ratios for IL-13Rα2-V9 vs. native IL-13Rα2345-353 as well as IL-13Rα2-A1V9 vs. native IL-13Rα2345-353 by two-tailed Student-t tests. Against U251 glioma cells, p<0.05 at E/T ratio of 10 and 40 for IL-13Rα2-V9 vs. native IL-13Rα2345-353 as well as IL-13Rα2-A1V9 vs. native IL-13Rα2345-353 by two-tailed Student-t tests. […] The data presented represent one of three experiments with different donors with similar results.
as §1, §2

EL4-HHD-IL-13Rα2 cells = assay: Immunization of HHD mice, spleen cell cytotoxicity (4 hr 51Cr-release); format: in vivo; conditions: for specific CTL activity against EL4-HHD-IL-13Rα2 cells: 100 μg peptide s.c. in IFA with HBVcore128-140, FIG. 7; for magnitude of CTL activities in comparison to native IL-13Rα2345-353 against EL4-HHD-IL-13Rα2 cells: p<0.05 at all effector/target ratios
Description: (§3) Control animals received IFA containing HBV helper-peptide only. Eleven days after the last immunization, the animals were sacrificed, and 5×10^6 spleen cells (SPCs) were stimulated in vitro with the same peptide that was used for in vivo stimulation (10 μM). On day 6 of culture, the bulk populations were tested for specific cytotoxicity against the EL4-HHD cells expressing IL-13Rα2 or EL4-HHD pulsed with IL-13 Rα2345-353.
(§4) EL4-HHD-IL-13Rα2 and EL4-HHD were labeled with 100 μCi of ^51Cr for 60 min, plated in 96-well V-bottomed plates (3×10^3 cell/well). Labeled EL4-HHD were pulsed with IL-13Rα2345-353 (1 μM) at 37° C. for 2 h. Control target cells were pulsed with no peptides. Stimulated SPCs were then added as effector cells and incubated at 37° C. for 4 h. One hundred μl of supernatant were collected and radioactivity measured in a gamma counter.

gp100 = assay: IFN-γ ELISPOT on patient PBMC, phase I/II trial; format: in vivo, human; conditions: both dose levels combined, Wilcoxon test
From the text: This study was designed to assess toxicity and the induction of immune and preliminary clinical responses of vaccinations with GAA-loaded αDC1 and administration of poly-ICLC (Hiltonol®, Oncovir, Inc.). The first course of vaccines consisted of 4 ultrasound-guided intranodal (i.n.) administrations of 1 or 3×10^7 αDC1/injections every 2 weeks (FIG. 19) rotating each of inguinal and axillary lymph node clusters to minimize the potential effects of injection-induced trauma in the microenvironment of the lymph nodes by repeating injections in short periods. The first 10 evaluable patients received 1×10^7 αDC1/injection (Dose Level 1), then 9 received 3×10^7 αDC1/injection (Dose Level 2). All patients received intramuscular (i.m.) injections with poly-ICLC (20 μg/kg) twice/week for 8 weeks starting on day 1. […]
Enzyme-linked immunosorbent spot (ELISPOT) assays were performed as described previously (see, e.g., Kirkwood et al, Clin. Cancer Res., 15:1443-1451, 2009) with slight modifications. Briefly, batched PBMC samples were evaluated simultaneously following in vitro stimulation with autologous, irradiated PBMC loaded with wild-type IL-13Rα345-353, EphA2883-891, GP100209-217 and YKL-40202-211 for a week. […]

[2] = Toxicity assessment (NCI Common Toxicity Criteria version 3.0), phase I/II trial; format: in vivo, human; conditions: Patient 6, following the 154th injection of poly-ICLC
From the text: This study was designed to assess toxicity and the induction of immune and preliminary clinical responses of vaccinations with GAA-loaded αDC1 and administration of poly-ICLC (Hiltonol®, Oncovir, Inc.). The first course of vaccines consisted of 4 ultrasound-guided intranodal (i.n.) administrations of 1 or 3×10^7 αDC1/injections every 2 weeks (FIG. 19) rotating each of inguinal and axillary lymph node clusters to minimize the potential effects of injection-induced trauma in the microenvironment of the lymph nodes by repeating injections in short periods. The first 10 evaluable patients received 1×10^7 αDC1/injection (Dose Level 1), then 9 received 3×10^7 αDC1/injection (Dose Level 2). All patients received intramuscular (i.m.) injections with poly-ICLC (20 μg/kg) twice/week for 8 weeks starting on day 1. […] Starting at Week 13, these patients were treated with the same dose of additional vaccinations every 4 weeks to a maximum of 5 vaccine injections and i.m. poly-ICLC starting on the day of the first additional vaccine and twice/week (1st booster phase).
The trial was monitored continuously for treatment-related AE using National Cancer Institute Common Toxicity Criteria version 3.0. […]

[3] = solution 2 mg per cc, room temperature; cited from earlier work
[4] = test system: preclinical brain tumor models; conditions: Zhu et al., J. Transl. Med., 5: 10, 2007; cited from earlier work
[5] = Salazar et al., Neurosurgery, 38: 1096-1103, 1996; cited from earlier work
[6] = test system: human glioma cells expressing HLA-A2 and EphA2 protein; assay: 4-hr 51Cr-release assay, EphA2883-891-stimulated CD8+ T cells against glioma cells; format: cell-based; conditions: stimulation with peptide-loaded DCs for 10 days, FIG. 9
Description: CD8+ T cells from an HLA-A2+ glioma patients were stimulated with DCs loaded with EphA2883-891 for 10 days. These T cells were then tested for their lytic activity against human glioma cells SNB19 (HLA-A2+, EphA2+) (▴), U251 (HLA-A2+, EphA2+) (▪) and A172 (HLA-A2−, EphA2+) (▾) by 4-hr ^51Cr-release assay.
EphA2 is an attractive tumor-associated antigen and a target for tumor-vaccines, as 5 HLA-A2 and 3 DR4 T cell epitopes have been previously identified (Tatsumi et al., 2003).

[7] = test system: EL4-HHD cells pulsed with the native IL-13Rα2345-353; assay: Immunization of HHD mice, spleen cell cytotoxicity (4 hr 51Cr-release); format: in vivo; conditions: 100 μg peptide s.c. in IFA with HBVcore128-140; difference not statistically significant; FIG. 6
Description: as §3, §4

Substance	binding affinity to HLA-A2 compared with the native IL-13Rα2345-353 (HLA-A2)	lysis of T2 target cells pulsed with 100 ng/ml wild type IL-13Rα2345-353 by peptide-stimulated T cells [1]	magnitude of CTL reactivity against T2 cells loaded with native IL-13Rα2345-353 compared with native or IL-13Rα2-E1V9 [1]	lysis of SNB19 in comparison to the native IL-13Rα2345-353 peptide (human glioma cells SNB19)	lysis of U-251 in comparison to the native IL-13Rα2345-353 peptide (human glioma cells U-251)	specific CTL activity against EL4-HHD-IL-13Rα2 cells (EL4-HHD-IL-13Rα2 cells)	magnitude of CTL activities in comparison to native IL-13Rα2345-353 against EL4-HHD-IL-13Rα2 cells (EL4-HHD-IL-13Rα2 cells)	anti-SNB19 glioma cell lytic activities on addition of cold T2 cells pulsed IL-13Rα2345-353 (human glioma cells SNB19)	further results
ALPFGFILV (Amino acid residues 345-353 of Interleukin-13 Receptor alpha with mutation of W to A at position 345 and I to V at position 353) [A1V9]	higher	efficiently lysed	higher magnitude	higher levels of lysis	higher levels of lysis	induced a specific CTL activity	higher magnitude	–	–
IMDQVPFSV (Amino acid residues 209-217 of GP100 with mutation of T to M at position 210) [gp100 epitope]	–	–	–	–	–	–	–	–	magnitude of IFN-γ ELISPOT response among the GAA peptides tested (gp100): highest magnitude of response
Polyinosinic-Polycytidylic acid stabilized with polylysine and carboxymethylcellulose [poly-ICLC]	–	–	–	–	–	–	–	–	adverse event during the 2nd booster phase considered to be DLT [2]: grade 2 systemic urticaria; stability [3]: stable at room temperature for several days; effect on vaccine effects [4]: enhance the vaccine effects; safety [5]: safe
TLADFDPRV (Amino acid residues 883-891 of EphA2) [EphA2883-891]	–	–	–	–	–	–	–	–	anti-glioma CTL reactivity of CD8+ cells from HLA-A2+ glioma patients [6]: anti-glioma CTL reactivity has been induced
WLPFGFILI (Amino acid residues 345-353 of Interleukin-13 Receptor alpha) [Native, reference compound]	–	efficiently lysed	–	–	–	induced a specific CTL activity	–	almost completely inhibited	–
WLPFGFILV (Amino acid residues 345-353 of Interleukin-13 Receptor alpha 2 with mutation of I to V at position 353) [V9, I was replaced with V at P9]	higher	efficiently lysed	higher magnitude	higher levels of lysis	higher levels of lysis	induced a specific CTL activity	higher magnitude	almost completely inhibited	CTL activities against T2 cells loaded with IL-13Rα2345-353 compared with the wild type-induced CTL line ([1]; 1, 10 and 100 nM peptide, E/T ratio=50, FIG. 2): higher CTL activities; antigen-specific CTL response in comparison to the wild type IL-13Rα2345-353 ([1]; E/T ratio of 50, 25 and 12.5): significantly higher level; CTL reactivity against EL4-HHD cells pulsed with the native peptide compared with other peptides examined [7]: trend toward higher levels of CTL reactivity
